Like-named read-outs stand apart in the source and are kept apart here.
System: cancer cell lines
Assay: Cancer cell proliferation activity (CellTiterGlo, 72 h)
Assay type: cell-based
Details: 72 h, 72 h, read-out: IC50
Procedure: Dose response relationships on cell proliferation was assessed for representative Compounds of the Disclosure on cancer cell lines. Briefly, compound treatment of cells started one day after seeding with a final DMSO concentration of 0.1%, and was performed by nanodrop-dispensing using a Tecan Dispenser. 0.1% DMSO (solvent) and Staurosporine (10 μM) served as high control (100% viability) and low control (0% viability), respectively.
Cells were cultured in the appropriate media. For the assays, cells were seeded in white cell culture-treated flat and clear bottom multiwell plates and incubated at 37° C. overnight before compound was added. After incubation for 72 h at 37° C. at 5% or 10% CO2 dependent on the medium, cell plates were equilibrated to room temperature for one hour, CellTiterGlo reagent (Promega) was added and luminescence was measured approximately an hour later using a luminometer.
Raw data were converted into percent cell viability relative to the high and low control, which were set to 100% and 0%, respectively.
The IC50 values are summarized in Tables 9A-1, Table 10A, and Table 10B.

Compound: C[C@]1(CO)O[C@@H](n2cc(F)c(=O)[nH]c2=O)C[C@@H]1O [Cpd. No. 105, 5-fluoro-1-((2R,4S,5R)-4-hydroxy-5-(hydroxymethyl)-5-methyltetrahydrofuran-2-yl)pyrimidine-2,4(1H,3H)-dione]
- IC50 (5637 cell line (bladder)): 740 nM
- IC50 (CLS439 cell line (bladder)): > 50000 nM
- IC50 (HS729 cell line (muscle)): 1370 nM
- IC50 (HSS78T cell line): > 50000 nM
- IC50 (JAR cell line (placenta)): 5830 nM
- IC50 (SKMELS cell line): 5100 nM
- IC50 (Homo sapiens, 22Rv1, 72 h, 22RV1 cell line (prostate)): 310 nM
- IC50 (Homo sapiens, 786-0, 72 h, 786O cell line (kidney)): 2510 nM
- IC50 (Homo sapiens, A204, 72 h, A204 cell line (muscle)): 2550 nM
- IC50 (Homo sapiens, A549, 72 h, A549 cell line): 530 nM
- IC50 (Homo sapiens, A673, 72 h, A673 cell line (bone)): 2810 nM
- IC50 (Homo sapiens, A2780, 72 h, A2780 cell line (ovary)): 3500 nM
- IC50 (Homo sapiens, A-375, 72 h, A375 cell line (skin)): 3510 nM
- IC50 (Homo sapiens, A-431, 72 h, A431 cell line (skin)): 50 nM
- IC50 (Homo sapiens, ACHN, ACHN cell line (kidney)): 270 nM
- IC50 (Homo sapiens, ASPC1, 72 h, ASPC1 cell line (pancreas)): 160 nM
- IC50 (Homo sapiens, BT-20, 72 h, BT20 cell line (breast)): > 50000 nM
- IC50 (Homo sapiens, BXPC-3, 72 h, BXPC3 cell line (pancreas)): 20 nM
- IC50 (Homo sapiens, C-33-A, C33A cell line (cervical)): 1580 nM
- IC50 (Homo sapiens, CAKI-1, 72 h, CAKI1 cell line (kidney)): > 50000 nM
- IC50 (Homo sapiens, COLO 205, 72 h, COLO205 cell line (colon)): 310 nM
- IC50 (Homo sapiens, COLO-678, 72 h, COLO678 cell line (colon)): > 50000 nM
- IC50 (Homo sapiens, Ca-Ski, CASKI cell line (cervical)): 2470 nM
- IC50 (Homo sapiens, Caco-2, 72 h, CACO2 cell line (colon)): > 50000 nM
- IC50 (Homo sapiens, Calu-6, 72 h, CALU6 cell line (lung)): 1710 nM
- IC50 (Homo sapiens, DLD-1, 72 h, DLD1 cell line (colon)): 3740 nM
- IC50 (Homo sapiens, DU-145, 72 h, DU145 cell line (prostate)): 1000 nM
- IC50 (Homo sapiens, EFO-21, 72 h, EFO21 cell line (ovary)): 2780 nM
- IC50 (Homo sapiens, EJ-28, 72 h, EJ28 cell line (bladder)): 1720 nM
- IC50 (Homo sapiens, Granta-519, 72 h, GRANTA-519 cell line (hematological)): 650 nM
- IC50 (Homo sapiens, HCT-15, 72 h, HCT15 cell line (colon)): 2950 nM
- IC50 (Homo sapiens, HCT-116, 72 h, HCT116 cell line (colon)): 5530 nM
- IC50 (Homo sapiens, HEK293, 72 h, HEK293 cell line (kidney)): 4350 nM
- IC50 (Homo sapiens, HL-60, 72 h, HL-60 cell line (hematological)): 3870 nM
- IC50 (Homo sapiens, HT-29, 72 h, HT29 cell line (colon)): 530 nM
- IC50 (Homo sapiens, HT-1080, 72 h, HT1080 cell line (connective tissue)): 2690 nM
- IC50 (Homo sapiens, HeLa, HELA cell line (cervical)): > 50000 nM
- IC50 (Homo sapiens, HepG2, 72 h, HEPG2 cell line (liver)): 770 nM
- IC50 (Homo sapiens, IGROV-1, 72 h, IGROV1 cell line (ovary)): 2990 nM
- IC50 (Homo sapiens, IMR-90, 72 h, IMR.90 cell line): > 50000 nM
- IC50 (Homo sapiens, J82, 72 h, J82 cell line (bladder)): 1000 nM
- IC50 (Homo sapiens, JEG-3, 72 h, JEG3 cell line (placenta)): 1170 nM
- IC50 (Homo sapiens, JIMT-1, 72 h, JIMT1 cell line (breast)): 7280 nM
- IC50 (Homo sapiens, K562, 72 h, K-562 cell line (hematological)): 5830 nM
- IC50 (Homo sapiens, Kasumi 1, 72 h, KASUMI-1 cell line (hematological)): > 50000 nM
- IC50 (Homo sapiens, L-363, 72 h, L-363 cell line (hematological)): 2800 nM
- IC50 (Homo sapiens, LoVo, LOVO cell line (colon)): 510 nM
- IC50 (Homo sapiens, MCF7, 72 h, MCF7 cell line (breast)): 170 nM
- IC50 (Homo sapiens, MDA-MB-231, 72 h, MDAMB231 cell line (breast)): > 50000 nM
- IC50 (Homo sapiens, MDA-MB-435, 72 h, MDAMB435 cell line (skin)): 2440 nM
- IC50 (Homo sapiens, MDA-MB-436, 72 h, MDAMB436 cell line (breast)): 420 nM
- IC50 (Homo sapiens, MDA-MB-468, 72 h, MDAMB468 cell line (breast)): 2880 nM
- IC50 (Homo sapiens, MG-63, 72 h, MG63 cell line (bone)): 1810 nM
- IC50 (Homo sapiens, MHH-ES-1, 72 h, MHHES1 cell line (bone)): 2290 nM
- IC50 (Homo sapiens, MIA PaCa-2, 72 h, MIAPACA2 cell line (pancreas)): 2430 nM
- IC50 (Homo sapiens, MINO, MINO cell line (hematological)): 580 nM
- IC50 (Homo sapiens, MV4-11, 72 h, MV4-11 cell line (hematological)): 180 nM
- IC50 (Homo sapiens, NCI-H23, 72 h, NCI-H23 cell line (lung)): 1410 nM
- IC50 (Homo sapiens, NCI-H82, 72 h, NCIH82 cell line (lung)): 4600 nM
- IC50 (Homo sapiens, NCI-H292, 72 h, NCIH292 cell line (lung)): > 50000 nM
- IC50 (Homo sapiens, NCI-H460, 72 h, NCIH460 cell line (lung)): 600 nM
- IC50 (Homo sapiens, OVCAR-3, 72 h, OVCAR3 cell line (ovary)): 5890 nM
- IC50 (Homo sapiens, OVCAR-4, 72 h, OVCAR4 cell line (ovary)): 2790 nM
- IC50 (Homo sapiens, PANC-1, 72 h, PANC1 cell line (pancreas)): 4990 nM
- IC50 (Homo sapiens, PC-3, 72 h, PC3 cell line (prostate)): 8200 nM
- IC50 (Homo sapiens, PLC-PRF-5, 72 h, PLCPRF5 cell line (liver)): 1720 nM
- IC50 (Homo sapiens, Panc1005, 72 h, PANC1005 cell line (pancreas)): > 50000 nM
- IC50 (Homo sapiens, RD, RD cell line (muscle)): 3490 nM
- IC50 (Homo sapiens, Ramos, RAMOS cell line (hematological)): 3140 nM
- IC50 (Homo sapiens, SAOS-2, 72 h, SAOS2 cell line (bone)): 1140 nM
- IC50 (Homo sapiens, SF-268, 72 h, SF268 cell line (brain)): 1070 nM
- IC50 (Homo sapiens, SF-295, 72 h, SF295 cell line (brain)): 1200 nM
- IC50 (Homo sapiens, SK-BR-3, 72 h, SKBR3 cell line (breast)): 40 nM
- IC50 (Homo sapiens, SK-HEP1, 72 h, SKHEP1 cell line (liver)): 1360 nM
- IC50 (Homo sapiens, SK-LMS-1, 72 h, SKLMS1 cell line (uterus)): 1140 nM
- IC50 (Homo sapiens, SK-MEL-28, 72 h, SKMEL28 cell line (skin)): > 50000 nM
- IC50 (Homo sapiens, SK-N-AS, SKNAS cell line (brain)): > 50000 nM
- IC50 (Homo sapiens, SK-N-SH, SKNSH cell line (brain)): > 50000 nM
- IC50 (Homo sapiens, SK-OV-3, 72 h, SKOV3 cell line (ovary)): 810 nM
- IC50 (Homo sapiens, SNB-75, 72 h, SNB75 cell line (brain)): > 50000 nM
- IC50 (Homo sapiens, SU-DHL10, 72 h, SU-DHL-10 cell line (hematological)): 4950 nM
- IC50 (Homo sapiens, SU-DHL-6, 72 h, SU-DHL-6 cell line (hematological)): 5490 nM
- IC50 (Homo sapiens, SW-620, 72 h, SW620 cell line (colon)): 390 nM
- IC50 (Homo sapiens, T-24, 72 h, T24 cell line (bladder)): 2840 nM
- IC50 (Homo sapiens, TE-671, 72 h, TE671 cell line (muscle)): 5920 nM
- IC50 (Homo sapiens, THP-1, 72 h, THP-1 cell line (hematological)): 1690 nM
- IC50 (Homo sapiens, U2OS, U2OS cell line (bone)): > 50000 nM
- IC50 (Homo sapiens, U-87 MG, U87MG cell line (brain)): > 50000 nM
- IC50 (Homo sapiens, UMUC3, 72 h, UMUC3 cell line (bladder)): 2450 nM
- IC50 (Homo sapiens, UO-31, 72 h, UO31 cell line (kidney)): > 50000 nM
- IC50 (Homo sapiens, WSU-NHL, WSU-NHL cell line (hematological)): 610 nM
- IC50 (MT-3, 72 h, MT3 cell line (breast)): 900 nM
- IC50 (NCI-H358M, NCIH358M cell line (lung)): 1340 nM
- IC50 (PBMC, PBMC (hematological)): 4980 nM
- IC50 (RD-ES, RDES cell line (bone)): 1290 nM

— patent US20250215039A1, “NUCLEOSIDES FOR TREATING CANCER” (PRIMEFOUR THERAPEUTICS, INC., priority 2022, published 2025)
